Reference: patent US20200002354A1, “HEXAHYDROPYRAZINOBENZ- OR -PYRIDO-OXAZEPINES CARRYING AN OXYGEN-CONTAINING SUBSTITUENT AND USE THEREOF IN THE TREATMENT OF 5-HT2C-DEPENDENT DISORDERS” (AbbVie Deutschland GmbH & Co. KG, priority 2015, published 2020)

Experiments:
human 5-HT2A receptor = molecular target: T1, human 5-HT2A receptor (Homo sapiens, UniProt P28223); assay: Human 5-HT2A functional assay (calcium mobilisation in CHO-K1 cells, FLIPR); type: cell-based; details: based on agonism: EC50 5-HT2A/EC50 5-HT2C
T1 construct: expressed in transfected cells; host or cells: CHO-K1
Outline: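 CHO-K1 cells stably expressing human 5-HT2A, serum-starved overnight and loaded with calcium dye plus 0.07% probenecid, were given compound (10^−10 to 10^−5 M) for agonism, then serotonin at 3×10^−8 M after 8 min for antagonism. FLIPR calcium responses were normalised to serotonin maximum, and EC50/IC50 came from four-parameter fits, with Kb via Cheng–Prusoff.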

human 5-HT2B receptor = molecular target: T2, human 5-HT2B receptor (Homo sapiens, UniProt P41595); assay: Human 5-HT2B functional assay (calcium mobilisation in CHO-FlpIn cells, FLIPR); type: cell-based; details: based on agonism: EC50 5-HT2B/EC50 5-HT2C
T2 construct: expressed in transfected cells; host or cells: CHO-FlpIn
Outline: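 CHO-FlpIn cells stably expressing human 5-HT2B, serum-starved 4 h and Ca5 dye-loaded, received compound (10^−10 to 10^−5 M) for agonism, then 10^−8 M serotonin after 8 min for antagonism; peak calcium read by FLIPR. Efficacy as % serotonin maximum; EC50/IC50 from four-parameter fits, Kb via Cheng–Prusoff.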

5-HT2C receptor = molecular target: T3, 5-HT2C receptor (Homo sapiens, UniProt P28335); assay: Human 5-HT2C functional assay (beta-arrestin2 recruitment, U2OS_HTR2C_β-Arrestin cells); type: cell-based; details: for EC50: Potency (EC50 5-HT2C) in functional assay, agonism, read-out: EC50 5-HT2C; for Emax: relative efficacy vs maximal effect induced by 5-HT (defined as 100%)
T3 construct: host or cells: U2OS
Outline: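 U2OS cells expressing human 5-HT2C with β-arrestin2 enzyme-fragment complementation; switched to 1% serum medium 24 h after plating, compounds added next day for 1.5 h. β-Galactosidase activity read by chemiluminescence; response expressed as percent of 10 μM 5-HT or maximal 5-HT effect (relative efficacy).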

[1] = Metabolic stability in human liver microsomes, unbound intrinsic clearance; type: in vitro ADME; details: liver microsomes, pH 7.4; unbound intrinsic clearance (human); Clint unbound = Cl int/fu mic; read-out: Cl int, mic unb. (h)
Outline: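 Compound at 0.5 μM incubated with human liver microsomes (0.25 mg/mL) in 0.05 M potassium phosphate pH 7.4 at 37° C, started with 1.0 mM NADPH; sampled 0–30 min, parent quantified by LC-MS/MS. First-order t1/2 gives CLint (uL/min/mg), scaled to L/h/kg; unbound CLint = CLint/fu mic.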

T2 sequence (P41595 whole entry): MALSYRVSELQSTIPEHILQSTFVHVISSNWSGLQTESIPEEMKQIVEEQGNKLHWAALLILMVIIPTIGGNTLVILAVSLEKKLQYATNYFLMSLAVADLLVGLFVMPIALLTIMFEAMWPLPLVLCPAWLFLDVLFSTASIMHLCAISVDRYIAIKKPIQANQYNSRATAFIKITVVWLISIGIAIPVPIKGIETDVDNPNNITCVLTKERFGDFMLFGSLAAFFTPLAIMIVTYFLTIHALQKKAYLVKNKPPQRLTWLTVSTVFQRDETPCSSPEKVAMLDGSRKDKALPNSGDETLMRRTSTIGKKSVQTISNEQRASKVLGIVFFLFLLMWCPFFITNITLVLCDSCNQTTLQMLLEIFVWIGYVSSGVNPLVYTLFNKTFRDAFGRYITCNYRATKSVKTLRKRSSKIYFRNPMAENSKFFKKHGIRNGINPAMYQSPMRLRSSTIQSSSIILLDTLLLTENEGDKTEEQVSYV
T1 sequence (P28223 whole entry): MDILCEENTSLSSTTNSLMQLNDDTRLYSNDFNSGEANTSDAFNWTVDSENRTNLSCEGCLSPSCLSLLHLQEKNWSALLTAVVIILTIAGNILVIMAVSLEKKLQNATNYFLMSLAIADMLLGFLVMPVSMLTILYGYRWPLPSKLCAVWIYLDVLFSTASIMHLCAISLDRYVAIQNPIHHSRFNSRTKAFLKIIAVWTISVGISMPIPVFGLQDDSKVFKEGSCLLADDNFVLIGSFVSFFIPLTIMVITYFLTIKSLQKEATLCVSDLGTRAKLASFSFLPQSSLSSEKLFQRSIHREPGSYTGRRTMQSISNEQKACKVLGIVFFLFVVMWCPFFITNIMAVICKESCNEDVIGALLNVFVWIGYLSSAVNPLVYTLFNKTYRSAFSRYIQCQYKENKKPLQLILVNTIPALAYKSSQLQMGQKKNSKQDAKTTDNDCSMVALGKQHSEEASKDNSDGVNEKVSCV
T3 sequence (P28335 33-458): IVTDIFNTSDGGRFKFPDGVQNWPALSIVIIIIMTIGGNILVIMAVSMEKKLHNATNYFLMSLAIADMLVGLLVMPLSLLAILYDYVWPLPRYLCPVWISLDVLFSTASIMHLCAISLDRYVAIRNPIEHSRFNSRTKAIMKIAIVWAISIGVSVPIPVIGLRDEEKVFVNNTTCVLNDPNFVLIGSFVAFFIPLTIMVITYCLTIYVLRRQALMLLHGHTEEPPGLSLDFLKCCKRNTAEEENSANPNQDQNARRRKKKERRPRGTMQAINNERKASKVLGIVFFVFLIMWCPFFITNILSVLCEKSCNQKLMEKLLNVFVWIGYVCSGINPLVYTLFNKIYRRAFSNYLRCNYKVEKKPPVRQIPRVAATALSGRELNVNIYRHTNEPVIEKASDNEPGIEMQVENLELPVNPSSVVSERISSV
T3 sequence (P32121 whole entry partner): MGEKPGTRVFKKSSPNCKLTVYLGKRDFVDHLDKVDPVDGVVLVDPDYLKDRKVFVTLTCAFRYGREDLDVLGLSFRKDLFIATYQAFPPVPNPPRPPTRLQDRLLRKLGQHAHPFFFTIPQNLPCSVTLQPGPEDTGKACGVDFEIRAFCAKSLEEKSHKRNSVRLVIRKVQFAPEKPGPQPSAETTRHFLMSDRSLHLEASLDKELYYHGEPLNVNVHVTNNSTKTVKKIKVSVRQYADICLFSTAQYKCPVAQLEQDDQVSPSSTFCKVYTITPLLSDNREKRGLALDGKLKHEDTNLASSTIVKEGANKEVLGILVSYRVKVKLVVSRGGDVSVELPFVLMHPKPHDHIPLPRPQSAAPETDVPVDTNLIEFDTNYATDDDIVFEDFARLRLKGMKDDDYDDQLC

Compound | Selectivity over 5-HT2A (human 5-HT2A receptor) | Selectivity over 5-HT2B (human 5-HT2B receptor) | EC50 (5-HT2C receptor) [nM] | Emax (5-HT2C receptor) [%] | CLint scaled at 0.5 μM [1] [mL/min/kg]
COC[C@@H]1C[C@@H]2CNCCN2c2cc(C)cc(F)c2O1 [Example 33, (4aR,6S)-8-Fluoro-6-(methoxymethyl)-10-methyl-2,3,4,4a,5,6-hexahydro-1H-pyrazino[2,1-d][1,5]benzoxazepine] | + (from 10 to 30) | + (from 10 to 30) | 200 to 1000 | 50 to 70 | < 83.3
C#Cc1cc(F)cc2c1O[C@H](COC)C[C@@H]1CNCCN21.Cl [Example 34, (4aR,6S)-8-Ethynyl-10-fluoro-6-(methoxymethyl)-2,3,4,4a,5,6-hexahydro-1H-pyrazino[2,1-d][1,5]benzoxazepine hydrochloride] | +++ (>100) | + (from 10 to 30) | < 20 | > 70 | < 83.3
COC[C@H]1C[C@@H]2CNCCN2c2cc(F)cc(Cl)c2O1.Cl [Example 35, (4aR,6R)-8-Chloro-10-fluoro-6-(methoxymethyl)-2,3,4,4a,5,6-hexahydro-1H-pyrazino[2,1-d][1,5]benzoxazepine hydrochloride] | ++ (from >30 to 100) | + (from 10 to 30) | 20 to 200 | > 70 | < 83.3
C#Cc1cc(F)c2c(c1)N1CCNC[C@H]1C[C@@H](COC)O2.O=C(O)C(O)C(O)C(=O)O [Example 36, (4aR,6S)-10-Ethynyl-8-fluoro-6-(methoxymethyl)-2,3,4,4a,5,6-hexahydro-1H-pyrazino[2,1-d][1,5]benzoxazepine; (2R,3R)-2,3-dihydroxybutanedioic acid] | + (from 10 to 30) | + (from 10 to 30) | 200 to 1000 | 50 to 70 | 83.3 to 833
COC[C@H]1C[C@@H]2CNCCN2c2c(F)c(F)cc(Cl)c2O1.Cl [Example 37, (4aR,6R)-8-Chloro-10,11-difluoro-6-(methoxymethyl)-2,3,4,4a,5,6-hexahydro-1H-pyrazino[2,1-d][1,5]benzoxazepine hydrochloride] | + (from 10 to 30) | + (from 10 to 30) | 200 to 1000 | 30 to 50 | < 83.3
COC[C@@H]1C[C@@H]2CNCCN2c2cc(F)c(F)c(Cl)c2O1.Cl [Example 38, (4aR,6S)-8-Chloro-9,10-difluoro-6-(methoxymethyl)-2,3,4,4a,5,6-hexahydro-1H-pyrazino[2,1-d][1,5]benzoxazepine hydrochloride] | ++ (from >30 to 100) | ++ (from >30 to 100) | < 20 | > 70 | < 83.3
Cc1ccc2c(c1F)O[C@H](CO)C[C@@H]1CNCCN21 [Example 39, [(4aR,6S)-8-Fluoro-9-methyl-2,3,4,4a,5,6-hexahydro-1H-pyrazino[2,1-d][1,5]benzoxazepin-6-yl]methanol] | ++ (from >30 to 100) | ++ (from >30 to 100) | 20 to 200 | 50 to 70 | < 83.3
C#Cc1cc(F)c(F)c2c1O[C@H](COC)C[C@@H]1CNCCN21.Cl [Example 40, (4aR,6S)-8-Ethynyl-10,11-difluoro-6-(methoxymethyl)-2,3,4,4a,5,6-hexahydro-1H-pyrazino[2,1-d][1,5]benzoxazepine hydrochloride] | +++ (>100) | + (from 10 to 30) | < 20 | > 70 | < 83.3
COC[C@@H]1C[C@@H]2CNCCN2c2cc(C(F)(F)F)cc(Cl)c2O1 [Example 45, (4aR,6S)-8-Chloro-6-(methoxymethyl)-10-(trifluoromethyl)-2,3,4,4a,5,6-hexahydro-1H-pyrazino[2,1-d][1,5]benzoxazepine] | +++ (>100) | +++ (>100) | 20 to 200 | > 70 | 83.3 to 833
COC[C@@H]1C[C@@H]2CNCCN2c2c(cc(F)c(F)c2F)O1.Cl [Example 47, (4aR,6S)-9,10,11-Trifluoro-6-(methoxymethyl)-2,3,4,4a,5,6-hexahydro-1H-pyrazino[2,1-d][1,5]benzoxazepine hydrochloride] | +++ (>100) | +++ (>100) | 20 to 200 | > 70 | < 83.3
COC[C@@H]1C[C@@H]2CNCCN2c2ccc(F)cc2O1.Cl [Example 51, (4aR,6S)-9-Fluoro-6-(methoxymethyl)-2,3,4,4a,5,6-hexahydro-1H-pyrazino[2,1-d][1,5]benzoxazepine hydrochloride] | + (from 10 to 30) | ++ (from >30 to 100) | 200 to 1000 | 50 to 70 | < 83.3
COC[C@@H]1C[C@@H]2CNCCN2c2cc(Cl)cc(Cl)c2O1 [Example 52, (4aR,6S)-8,10-Dichloro-6-(methoxymethyl)-2,3,4,4a,5,6-hexahydro-1H-pyrazino[2,1-d][1,5]benzoxazepine] | +++ (>100) | ++ (from >30 to 100) | 20 to 200 | > 70 | < 83.3
COC[C@@H]1C[C@@H]2CNCCN2c2c(F)c(F)c(OC)c(Cl)c2O1.Cl [Example 53, (4aR,6S)-8-Chloro-10,11-difluoro-9-methoxy-6-(methoxymethyl)-2,3,4,4a,5,6-hexahydro-1H-pyrazino[2,1-d][1,5]benzoxazepine hydrochloride] | +++ (>100) | +++ (>100) | 20 to 200 | 50 to 70 | 83.3 to 833
COC[C@@H]1C[C@@H]2CNCCN2c2c(F)cccc2O1.Cl [Example 54, (4aR,6S)-11-Fluoro-6-(methoxymethyl)-2,3,4,4a,5,6-hexahydro-1H-pyrazino[2,1-d][1,5]benzoxazepine hydrochloride] | + (from 10 to 30) | + (from 10 to 30) | 200 to 1000 | 30 to 50 | < 83.3
COC[C@@H]1C[C@@H]2CNCCN2c2c(F)c(F)cc(C(F)(F)F)c2O1.Cl [Example 56, (4aR,6S)-10,11-Difluoro-6-(methoxymethyl)-8-(trifluoromethyl)-2,3,4,4a,5,6-hexahydro-1H-benzo[b]pyrazino[1,2-d][1,4]oxazepine hydrochloride] | +++ (>100) | +++ (>100) | 20 to 200 | > 70 | < 83.3
